Columns and labels:
blackgrass = assay: Test B postemergence herbicide test; assay type: in vivo, Alopecurus myosuroides
How it was run: (§1)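 Paddy species grown to the 2-leaf stage under flooding; blackgrass sprayed postemergence at 2–18 cm (1- to 4-leaf stage). Plants kept in a greenhouse for 13 to 15 days, then visually rated against controls on 0 (no effect) to 100 (complete control).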

lambsquarters = assay: Test B pre-/postemergence herbicide test; assay type: in vivo, Chenopodium album
How it was run: (§2)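 Formulation: non-phytotoxic solvent mix with surfactant. Timing: preemergence on seed and postemergence on 2–18 cm plants, applied concurrently. Readout after 13–15 d greenhouse: visual 0–100 control rating against controls.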

giant foxtail [1] = assay: Test B pre-/postemergence herbicide test; assay type: in vivo, Setaria faberi
How it was run: as §2

corn = assay: Test B pre-/postemergence herbicide test; assay type: in vivo, Zea mays
How it was run: as §2

ducksalad [2] = assay: Test C flooded paddy test; assay type: in vivo, Heteranthera limosa
barnyardgrass [3] = assay: Test C flooded paddy test; assay type: in vivo, Echinochloa crus-galli
How it was run: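 Ratings (0 = no effect, 100 = complete control) come from visual comparison with untreated plants after 12 to 14 days in the greenhouse. Treatment was postemergence at the 1- to 4-leaf stage (2–18 cm), or at the 2-leaf stage for the flooded paddy barnyardgrass.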

wild oat = assay: Test B postemergence herbicide test; assay type: in vivo, Avena fatua
How it was run: (§3)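 Each value is a visual 0–100 response rating taken against controls 13 to 15 days after treatment in the greenhouse. Plants received formulated chemical postemergence at the 1- to 4-leaf stage or, in flooded paddy, at the 2-leaf stage.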

Surinam grass = assay: Test B pre-/postemergence herbicide test; assay type: in vivo, Urochloa decumbens
How it was run: as §2

velvetleaf [4] = assay: Test B pre-/postemergence herbicide test; assay type: in vivo, Abutilon theophrasti
How it was run: as §2

cocklebur = assay: Test B pre-/postemergence herbicide test; assay type: in vivo, Xanthium strumarium
How it was run: (§4)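 Test chemicals in a non-phytotoxic solvent mixture with surfactant were applied preemergence to seeded species and postemergence to plants 2-18 cm tall (1- to 4-leaf stage); rice and barnyardgrass were also tested in a flooded paddy at the 2-leaf stage. Visual rating versus controls after 13-15 days in greenhouse, scale 0 (no effect) to 100 (complete control).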

large crabgrass [5] = assay: Test B pre-/postemergence herbicide test; assay type: in vivo, Digitaria sanguinalis
How it was run: as §2

rice [6] = assay: Test B flooded paddy test; assay type: in vivo, Oryza sativa; conditions: scale 0 to 100 (0 no effect, 100 complete control)
How it was run: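 Scale 0–100: zero equals no visible effect, 100 complete control, judged by eye relative to controls. Timing: 13 to 15 days in greenhouse post-treatment. Growth stage at spraying: two leaves (paddy) or one to four leaves, 2–18 cm (postemergence).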

wheat = assay: Test B postemergence herbicide test; assay type: in vivo, Triticum aestivum; set-up: key to Wheat plant response rating: 0 = no effect, 100 = complete control
How it was run: as §3

barnyardgrass [7] = assay: Test B flooded paddy test; assay type: in vivo, Echinochloa crus-galli; conditions: scale 0 to 100 (0 no effect, 100 complete control)
How it was run: as §1

barnyardgrass [8] = assay: Test B pre-/postemergence herbicide test; assay type: in vivo, Echinochloa crus-galli; conditions: for Barnyardgrass plant response rating: Postemergence, scale 0 (no effect) to 100 (complete control)
How it was run: as §4

morningglory [9] = assay: Test B pre-/postemergence herbicide test; assay type: in vivo, Ipomoea coccinea
How it was run: as §4

rice [10] = assay: Test C flooded paddy test; assay type: in vivo, Oryza sativa
How it was run: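 Postemergence sprays applied to plants 2 to 18 cm tall (1- to 4-leaf stage); paddy species grown to 2-leaf stage under flooding. After 12 to 14 days in greenhouse, visual rating versus untreated controls on 0–100 scale (0 no effect, 100 complete control).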

pigweed = assay: Test B pre-/postemergence herbicide test; assay type: in vivo, Amaranthus retroflexus
How it was run: as §2

ducksalad [11] = assay: Test B flooded paddy test; assay type: in vivo, Heteranthera limosa; conditions: scale 0 to 100 (0 no effect, 100 complete control)
How it was run: as §1

[12] = tested on: small flower umbrella sedge; assay: Test B flooded paddy test; assay type: in vivo, Cyperus difformis; conditions: scale 0 to 100 (0 no effect, 100 complete control)
How it was run: as §1

[13] = tested on: smallflower umbrella sedge; assay: Test C flooded paddy test; assay type: in vivo, Cyperus difformis
morningglory [14] = assay: Test A pre-/postemergence herbicide test; assay type: in vivo, Ipomoea spp.
How it was run: (§5)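 Sandy loam soil given preemergence directed spray; plants at 2 to 10 cm, one- to two-leaf stage, sprayed to runoff postemergence, compounds in non-phytotoxic solvent with surfactant. Injury rated visually versus untreated controls after about ten greenhouse days, 0 (no effect) to 100 (complete control); dash means not tested.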

barnyardgrass [15] = assay: Test A pre-/postemergence herbicide test; assay type: in vivo, Echinochloa crus-galli
How it was run: as §5

velvetleaf [16] = assay: Test A pre-/postemergence herbicide test; assay type: in vivo, Abutilon theophrasti
How it was run: as §5

large crabgrass [17] = assay: Test A pre-/postemergence herbicide test; assay type: in vivo, Digitaria sanguinalis
How it was run: as §5

redroot pigweed = assay: Test A pre-/postemergence herbicide test; assay type: in vivo, Amaranthus retroflexus
How it was run: as §5

giant foxtail [18] = assay: Test A pre-/postemergence herbicide test; assay type: in vivo, Setaria faberi
How it was run: as §5

[19] = Postemergence, 500 g ai/ha, scale 0 (no effect) to 100 (complete control)
[20] = postemergence, 125 g ai/ha, scale 0 to 100
[21] = 125 g ai/ha, 0 is no effect, 100 is complete control, preemergence
[22] = 125 g ai/ha, scale 0 to 100 (0 no effect, 100 complete control)
[23] = 250 g ai/ha, scale of 0 to 100, 0 is no effect, 100 is complete control
[24] = 500 g ai/ha, visual rating after 12 to 14 days, scale 0 to 100 (0 no effect, 100 complete control)
[25] = Postemergence, 125 g ai/ha, 0 to 100 scale, 0 no effect, 100 complete control
[26] = Postemergence, 500 g ai/ha, 0 to 100 scale, 0 no effect, 100 complete control
[27] = preemergence, 125 g ai/ha, visual injury, 0 to 100 scale (0 no effect, 100 complete control)
[28] = preemergence, 500 g ai/ha, visual injury, 0 to 100 scale (0 no effect, 100 complete control)

SMILES: CCc1nn(C(C)C)nc1C(=S)Nc1cccc(C(=S)N(C)C)c1 [Compound 410]
- Blackgrass plant response rating (blackgrass; [19]): 30
- Blackgrass plant response rating (blackgrass; [20]): 10
- Plant response rating (0 to 100 scale), Lambsquarters (lambsquarters; [21]): 100
- Lambsquarters plant response rating (lambsquarters; [19]): 70
- Lambsquarters plant response rating (lambsquarters; [20]): 20
- Plant response rating (0 to 100 scale), Foxtail, Giant (giant foxtail [1]; [21]): 30
- Foxtail, Giant plant response rating (giant foxtail [1]; [19]): 20
- Foxtail, Giant plant response rating (giant foxtail [1]; [20]): 10
- Plant response rating (0 to 100 scale), Corn (corn; [21]): 0
- Corn plant response rating (corn; [19]): 10
- Corn plant response rating (corn; [20]): 0
- Ducksalad plant response rating (ducksalad [2]; 62 g ai/ha, scale 0 to 100): 30
- Ducksalad plant response rating (ducksalad [2]; [22]): 40
- Ducksalad plant response rating (ducksalad [2]; [23]): 60
- Plant response rating, Ducksalad (ducksalad [2]; [24]): 60
- Barnyardgrass plant response rating (barnyardgrass [3]; 62 g ai/ha, scale 0 to 100 (0 no effect, 100 complete control)): 0
- Barnyardgrass plant response rating (barnyardgrass [3]; [22]): 20
- Barnyardgrass plant response rating (barnyardgrass [3]; [23]): 60
- Plant response rating, Barnyardgrass (barnyardgrass [3]; [24]): 65
- Oat, Wild plant response rating (wild oat; [19]): 10
- Oat, Wild plant response rating (wild oat; [20]): 0
- Plant response rating (0 to 100 scale), Surinam Grass (Surinam grass; [21]): 60
- Surinam Grass plant response rating (Surinam grass; [19]): 0
- Surinam Grass plant response rating (Surinam grass; [20]): 0
- Plant response rating (0 to 100 scale), Velvetleaf (velvetleaf [4]; [21]): 30
- Velvetleaf plant response rating (velvetleaf [4]; [19]): 0
- Velvetleaf plant response rating (velvetleaf [4]; [20]): 0
- Plant response rating (0 to 100 scale), Cocklebur (cocklebur; [21]): 0
- Cocklebur plant response rating (cocklebur; [19]): 10
- Cocklebur plant response rating (cocklebur; [20]): 0
- Plant response rating (0 to 100 scale), Crabgrass, Large (large crabgrass [5]; [21]): 90
- Crabgrass, Large plant response rating (large crabgrass [5]; [19]): 20
- Crabgrass, Large plant response rating (large crabgrass [5]; [20]): 0
- Rice plant response rating (rice [6]; 1000 g ai/ha): 60
- Wheat plant response rating (wheat; 500 g ai/ha, scale 0 to 100, 0 no effect, 100 complete control, preemergence): 90
- Wheat plant response rating (wheat; [19]): 10
- Wheat plant response rating (wheat; [20]): 0
- Barnyardgrass plant response rating (barnyardgrass [7]; 1000 g ai/ha): 80
- Plant response rating (0 to 100 scale), Barnyardgrass (barnyardgrass [8]; [21]): 100
- Barnyardgrass plant response rating (barnyardgrass [8]; 125 g ai/ha): 0
- Barnyardgrass plant response rating (barnyardgrass [8]; 500 g ai/ha): 0
- Plant response rating (0 to 100 scale), Morningglory (morningglory [9]; [21]): 30
- Morningglory plant response rating (morningglory [9]; [19]): 80
- Morningglory plant response rating (morningglory [9]; [20]): 0
- Rice plant response rating (rice [10]; 62 g ai/ha, scale 0 to 100): 20
- Rice plant response rating (rice [10]; [22]): 40
- Rice plant response rating (rice [10]; [23]): 60
- Plant response rating, Rice (rice [10]; [24]): 60
- Plant response rating (0 to 100 scale), Pigweed (pigweed; [21]): 60
- Pigweed plant response rating (pigweed; [19]): 70
- Pigweed plant response rating (pigweed; [20]): 0
- Ducksalad plant response rating (ducksalad [11]; 1000 g ai/ha): 80
- Sedge, Umbrella plant response rating ([12]; 1000 g ai/ha): 80
- Sedge, Umbrella plant response rating ([13]; 62 g ai/ha, scale 0 to 100): 70
- Sedge, Umbrella plant response rating [13, 22]: 75
- Sedge, Umbrella plant response rating [13, 23]: 80
- Plant response rating, Sedge, Umbrella [13, 24]: 85

SMILES: CCn1nc(C(C)(C)C)nc1C(=O)Nc1cccc(C(=O)N(C)C)c1 [Compound 448]
- Morningglory plant response rating (morningglory [14]; [25]): 15
- Morningglory plant response rating (morningglory [14]; [26]): 55
- Morningglory plant response rating (morningglory [14]; [27]): 60
- Morningglory plant response rating (morningglory [14]; [28]): 60
- Barnyardgrass plant response rating (barnyardgrass [15]; [25]): 90
- Barnyardgrass plant response rating (barnyardgrass [15]; [26]): 90
- Barnyardgrass plant response rating (barnyardgrass [15]; [27]): 95
- Barnyardgrass plant response rating (barnyardgrass [15]; [28]): 100
- Velvetleaf plant response rating (velvetleaf [16]; [25]): 60
- Velvetleaf plant response rating (velvetleaf [16]; [26]): 80
- Velvetleaf plant response rating (velvetleaf [16]; [27]): 15
- Velvetleaf plant response rating (velvetleaf [16]; [28]): 85
- Crabgrass, Large plant response rating (large crabgrass [17]; [25]): 75
- Crabgrass, Large plant response rating (large crabgrass [17]; [26]): 80
- Crabgrass, Large plant response rating (large crabgrass [17]; [27]): 45
- Crabgrass, Large plant response rating (large crabgrass [17]; [28]): 85
- Rice plant response rating (rice [6]; 125 g ai/ha): 80
- Rice plant response rating (rice [6]; 500 g ai/ha): 90
- Pigweed plant response rating (redroot pigweed; [25]): 70
- Pigweed plant response rating (redroot pigweed; [26]): 90
- Pigweed plant response rating (redroot pigweed; [27]): 100
- Pigweed plant response rating (redroot pigweed; [28]): 100
- Barnyardgrass plant response rating (barnyardgrass [7]; 125 g ai/ha): 90
- Barnyardgrass plant response rating (barnyardgrass [7]; 500 g ai/ha): 100
- Ducksalad plant response rating (ducksalad [11]; 125 g ai/ha): 70
- Ducksalad plant response rating (ducksalad [11]; 500 g ai/ha): 80
- Foxtail, Giant plant response rating (giant foxtail [18]; [25]): 85
- Foxtail, Giant plant response rating (giant foxtail [18]; [26]): 90
- Foxtail, Giant plant response rating (giant foxtail [18]; [27]): 80
- Foxtail, Giant plant response rating (giant foxtail [18]; [28]): 100
- Sedge, Umbrella plant response rating ([12]; 125 g ai/ha): 90
- Sedge, Umbrella plant response rating ([12]; 500 g ai/ha): 90
